# Results from patent US20070128181A1, “Methods of Preventing Morbidity and Mortality by Perioperative Administration of a Blood Clotting Inhibitor” (priority 2002, published 2007).
# System: patients with medically-refractory coronary artery disease scheduled for coronary artery bypass surgery
# Assay: Prospective, longitudinal study of aspirin use within 48 hours of revascularization in coronary artery bypass surgery patients
# Format: in vivo
# Description: A prospective, longitudinal study enrolled 5,436 patients. Eligible patients included those with medically-refractory coronary artery disease and scheduled for coronary artery bypass surgery at 70 medical institutions among 17 countries in North and South America, Europe, the Middle East and Asia. At each institution, 100 patients were to be prospectively enrolled according to a systematic sampling scheme that allowed a random sampling of patients at each institution among all patients undergoing surgery at that institution.
# Of the 5,436 patients enrolled, 5,065 patients completed the study and were included in the final analysis. Of the 371 patients excluded, 32 were excluded due to patient withdrawal, 2 due to death prior to surgery, 97 due to cancellation or rescheduling of surgery, 132 patients due to change in procedure, 11 due to inadvertent enrollment in another study, 86 due to incomplete data and 11 due to incomplete blood sampling, shipping or storage.
# Aspirin was administered in doses of 160 mg to 650 mg to 3,001 patients within 48 hours of revascularization. All potential side-effects associated with aspirin use were recorded daily by blinded investigators. Independent investigators coded all medications received-including pro- and anti-thrombotic and pro- and anti-coagulant medications, and blood products—by day throughout hospitalization, as well as at admission and at discharge, or until death.
# For each enrolled patient, approximately 7,500 fields of data were collected throughout the patient's index hospitalization, from admission until discharge, by independent investigators; treated physicians were blinded to all research data. Data included demographic, historical, clinical, laboratory, eloectrocardiographic, specialized testing, resource utilization, and adverse outcomes. Following last patient enrollment, all data fields for each patient were queried centrally for completeness and accuracy, with all changes documented prior to database closure.
# All outcomes were prespecified, defined by protocol, and discerned by investigators blinded to treatment group. Fatal and non-fatal outcomes were classified as cardiac (myocardial infarction, congestive heart failure and cardiac death), cerebral (stroke, encephalopathy and cerebral death), renal (dysfunction, failure and renal death), gastrointestinal (ischemia, infarction and GI death), or other (such as infectious, pulmonary). The diagnosis of myocardial infarction required either: the development of new Q waves (as defined by Minnesota Code 1-1-1I or 1I-2-7); or new persistent S T-segment or T-wave changes (Minnesota Code 4-1,4-2, 5-1 or 5-2) associated with an elevation of CK-MB isoenzyme values; or autopsy evidence of acute myocardial infarction. The diagnosis of heart failure required either: the use of a ventricular assist device; or the use of continuous inotropic support for at least 24 hours; or autopsy evidence of heart failure. Cerebral outcomes were classified as: clinically diagnosed stroke or encephalopathy; or CT, MRI or autopsy evidence of a focal or global defect. Renal dysfunction was defined as: a serum creatinine ≧177 μmol/L accompanied by a ≧62 μmol/L rise over baseline; and renal failure was defined as dysfunction requiring dialysis, or autopsy evidence of renal failure. Gastrointestinal ischemia was defined as abdominal pain diagnosed as intestinal ischemia, or detected at exploration; infarction required bowel resection, or autopsy evidence of intestinal infarction.
# The risk of death for aspirin taking versus control populations were compared using the Chi-Square test. Individual ischemic outcomes involving the heart, brain, kidney and gastrointestinal tract, and combined ischemic outcomes were compared using Fisher's Exact Test or the Chi-Square test as appropriate. Odds ratios and the 95% confidence intervals are presented with associated P values. […]
Compound,risks of dying and ischemic complications associated with platelet transfusion after reperfusion and prophylactic anti-fibrinolytics (FIG. 3A),"risk of dying during hospitalization (aspirin within 48 hours of revascularization, v. 5.9% without aspirin, P<0.0001) [%]","risk of non-fatal ischemic complications associated with the heart, brain, kidney or gastrointestinal tract (aspirin within 48 hours of revascularization, v. 24.5% without aspirin, P<0.0001) [%]","Odds Ratio, Multivariate Analyses for Morality (discontinuation of use (Table 3B))","survival over the first 30 postsurgical days (early aspirin use, FIG. 2)","reduction in mortality (first use of aspirin 48 hours after surgery, not significant, P=0.534) [%]","Gastritis, % of patients (human, in vivo) [%]","Hemorrhage: Gastrointestinal tract bleeding, % of patients (human, in vivo) [%]","Hemorrhage: Other Source of Bleeding, % of patients (human, in vivo) [%]","Impaired Wound Healing, % of patients (human, in vivo) [%]","Infection, % of patients (human, in vivo) [%]","Return to operating room for bleeding, % of patients (human, in vivo) [%]","Odds Ratio, Multivariate Analyses for Morality (use at admission (Table 3B))","Odds Ratio, Multivariate Analyses for Morality (use following revascularization, 95% CI 0.19-0.40, P <0.0001)","Odds Ratio, Multivariate Analyses for Morality (use prior to surgery (Table 3B))","Length of hospitalization (versus 11.32±9.44 without aspirin, P<0.0001)",patients who died within 12 hours of surgery (versus 25 patients in the control group),patients who died within 48 hours of surgery (versus 42 patients from the control group),"Odds Ratio, Multivariate Analyses for Morality (use over the week prior to revascularization, 95% CI 1.23-3.25, P 0.005)"
"CC(=O)Oc1ccccc1C(=O)O [Aspirin, aspirin]","substantially reduced, but did not eliminate these risks",1.4,13.6,1.04,Improved survival,15,0.33,1.1,1.7,4.5,8.4,1.9,1.46,0.27,0.77,9.57±7.14,none,one,–
"CC(=O)CC(c1ccccc1)c1c(O)c2ccccc2oc1=O (stereo not shown) [Warfarin/coumadin, warfarin]",–,–,–,–,–,–,–,–,–,–,–,–,–,–,–,–,–,–,2.00
